The source of these data is patent US20180221546A1, “IMPLANTABLE ORTHOPEDIC DEVICES HAVING ANTIMICROBIAL COATINGS” (TELEFLEX MEDICAL INCORPORATED, priority 2015, published 2018).

Common to all, as to type: cell-based
Test [1] deals with Enterobacter cloacae. Nature of the test: MIC and MBC by broth dilution in 96-well plate. On the procedure:
(§1) From the stock solutions of the drugs Alexidine and Chlorhexidine, dilution series was prepared in the wells of a 96-well plate by performing 1:1 dilutions to cover a concentration range of 0-512 ppm. Ten microliters from each of the drug concentration was mixed with […] of culture broth containing approximately 10^5CFU/mL of bacteria or yeast species. The test plate was incubated for 18-24 hours after which absorbance of each well was read at 670 nm on a BioTek plate reader. […] The wells containing growth should have had higher absorbance reading when compared to the drug control wells. After reading the absorbance for the MIC, 10 μl of each test well was plated onto the surface of D/E agar in 6 or 12 well microtiter plates to determine the MBC. The plates were incubated inverted at 37° C. for 24-48 hours after which numbers of colonies were counted. The MBC value was the lowest concentration of the drug at which no growth was observed.
In general terms: Dilution methods test growth across graded concentrations, often in twofold steps.

Test [2] concerns Enterococcus faecalis. In words: MIC and MBC by broth dilution in 96-well plate. The procedure: as §1
Test [3] deals with Candida albicans. Nature of the test: MIC and MBC by broth dilution in 96-well plate. On the procedure: as §1
Test [4] deals with Pseudomonas aeruginosa. In words: MIC and MBC by broth dilution in 96-well plate. On the procedure: as §1
Test [5] concerns Staphylococcus aureus. In words: MIC and MBC by broth dilution in 96-well plate. The procedure:
as §1

Test [6] has as its system Acinetobacter baumannii. Nature of the test: MIC and MBC by broth dilution in 96-well plate. The procedure: as §1
The test system of test [7] is Proteus mirabilis. Nature of the test: MIC and MBC by broth dilution in 96-well plate. On the procedure: as §1
For test [8], the system named is Candida albicans. Nature of the test: Time to Kill. The conditions noted are these: 128 ppm; C. albicans challenge 10^4-10^5 CFU/mL. On the procedure: (§2) Alexidine and Chlorhexidine, both at a concentration of 128 ppm were exposed to a Gram positive bacteria (Staphylococcus aureus), a Gram negative bacteria (Pseudomonas aeruginosa), and a fungus (Candida albicans). The challenge concentration for each organism was 10^4-10^5 CFU/mL, and the exposure time varied from 0.5-60 minutes. […] Complete kill of all three organisms was observed within 0.5 -1 minute of Alexidine exposure.

For test [9], the system named is Pseudomonas aeruginosa. In words: Time to Kill. The conditions noted are these: 128 ppm; P. aeruginosa challenge 10^4-10^5 CFU/mL. On the procedure: as §2
The subject of test [10] is Staphylococcus aureus. Nature of the test: Time to Kill. The conditions noted are these: 128 ppm; S. aureus challenge 10^4-10^5 CFU/mL. The procedure: as §2

Values after ≈ are worked out from the molar mass of the structure shown.

Usually MIC stands for the least concentration at which growth counts as inhibited. Low values mean inhibition by little substance, high ones a need for much substance. On to `[H]/N=C(\N/C(=N/[H])NCCCCCCNC(=N)NC(=N)Nc1ccc(Cl)cc1)Nc1ccc(Cl)cc1` [Chlorhexidine], for which the MBC in test [1] came out at 32 µg/mL (≈ 63.3 µM); in test [2], 64 µg/mL (≈ 127 µM); in [3] it was 4 µg/mL (≈ 7.91 µM); in test [4], 64 µg/mL (≈ 127 µM); in [5] it was 16 µg/mL (≈ 31.7 µM); in test [6], 32 µg/mL (≈ 63.3 µM). This compound had an MBC in test [7] of 8 µg/mL (≈ 15.8 µM). In addition, the MIC worked out at 2 µg/mL (≈ 3.96 µM) in test [1]; 2 µg/mL (≈ 3.96 µM) in test [2]; 2 µg/mL (≈ 3.96 µM) in [3]; 8 µg/mL (≈ 15.8 µM) in test [4]; 0.5 µg/mL (≈ 0.989 µM) in test [5]; 16 µg/mL (≈ 31.7 µM) in test [6]. In [7], this compound came in with an MIC of 8 µg/mL (≈ 15.8 µM). Moreover, the “Time to complete kill” value in test [8] was 60 min; in test [9] it was 5 min; in test [10] it was 60 min.

Regarding `CCCCC(CC)CNC(=N)NC(=N)NCCCCCCNC(=N)NC(=N)NCC(CC)CCCC` (stereo not shown) [Alexidine], the MBC in [1] turned out to be 2 µg/mL (≈ 3.93 µM); in [2] it was 2 µg/mL (≈ 3.93 µM); in test [3], 1 µg/mL (≈ 1.97 µM); in test [4], 128 µg/mL (≈ 252 µM); in [5], 1 µg/mL (≈ 1.97 µM); in test [6], 1 µg/mL (≈ 1.97 µM). Moreover, the MBC in test [7] came to 2 µg/mL (≈ 3.93 µM). The MIC in [1] was found to be 2 µg/mL (≈ 3.93 µM); in test [2], 0.5 µg/mL (≈ 0.983 µM); in test [3], 1 µg/mL (≈ 1.97 µM); in [4], 8 µg/mL (≈ 15.7 µM); in [5] it was 0.5 µg/mL (≈ 0.983 µM); in test [6], 0.5 µg/mL (≈ 0.983 µM). Also, the minimal inhibitory concentration (MIC) in [7] came to 1 µg/mL (≈ 1.97 µM). Besides, the “Time to complete kill” value in test [8], in test [9] and in test [10] was 0.5 to 1 min throughout.
